# *1 amine or outer side, *2 acyl side, *3 side chain or, on linkers, in order; H or OH if unused. Where a SMILES comes first, the peptide text is derived from it. [ ]: non-standard residue; d: D form. The star is where a group is joined. Hydrocinnamoyl(4-OSO3H) = O=C(CCc1ccc(OS(=O)(=O)O)cc1)*; X2 = O=C([C@@H]1CC(OS(=O)(=O)O)CN1[*:1])[*:2]; X5 = CCC[C@H]1CCN([*:1])[C@@H]1C(=O)[*:2]; X4 = O=C(c1ccc2cc(OS(=O)(=O)O)ccc2c1)*; X1 = CCCC1CCN([*:1])[C@@H]1C(=O)[*:2]; X3 = O=C(/C(=C/c1ccccc1)N[*:1])[*:2]; NMeF = CN[C@@H](Cc1ccccc1)C(=O)O; Nle = CCCC[C@H](N)C(=O)O; Ava = NCCCCC(=O)O
# Key:
# [1] = biological target: Gastrin/cholecystokinin type B receptor (Cavia porcellus); test: Evaluated in vitro for its binding affinity towards cholecystokinin type B receptor of guinea pig cortex
# [2] = biological target: Gastrin/cholecystokinin type B receptor (Cavia porcellus); test: as above; remark: listed apart in the source
# [3] = biological target: Cholecystokinin receptor type A (Cavia porcellus); test: Evaluated in vitro for its binding affinity towards cholecystokinin type A receptor of guinea pig pancreas
# [4] = biological target: Gastrin/cholecystokinin type B receptor (Cavia porcellus); test: In vitro binding affinity towards Cholecystokinin type B receptor of guinea pig cortex
Compound,IC50 [1] [nM],IC50 [3] [nM],further results
CCC[C@H]1CCN(C(=O)[C@H](Cc2c[nH]c3ccccc23)NC(=O)CNC(=O)[C@@H]2CCCN2C(=O)CCc2ccc(OS(=O)(=O)O)cc2)[C@@H]1C(=O)N[C@@H](CC(=O)O)C(=O)N(C)[C@@H](Cc1ccccc1)C(N)=O ({Hydrocinnamoyl(4-OSO3H)}-PGW[X5]D[NMeF]-NH2),0.9,,
CC(C)C[C@H](NC(=O)[C@H](Cc1c[nH]c2ccccc12)NC(=O)CCCCNC(=O)CCc1ccc(OS(=O)(=O)O)cc1)C(=O)N[C@@H](CC(=O)O)C(=O)N[C@@H](Cc1ccccc1)C(N)=O ({Hydrocinnamoyl(4-OSO3H)-Ava}-WLDF-NH2),1.1,,
CCCC[C@H](NC(=O)CCc1ccc(OS(=O)(=O)O)cc1)C(=O)NCC(=O)N[C@@H](Cc1c[nH]c2ccccc12)C(=O)N1CCC(CCC)[C@H]1C(=O)N[C@@H](CC(=O)O)C(=O)N(C)[C@@H](Cc1ccccc1)C(N)=O (some centres undefined) ({Hydrocinnamoyl(4-OSO3H)}-[Nle]GW[X1]D[NMeF]-NH2),,4.2,IC50 [2]: 0.3 nM
CCCC[C@H](NC(=O)[C@H](Cc1c[nH]c2ccccc12)NC(=O)CN1CC[C@H](NC(=O)CCc2ccc(OS(=O)(=O)O)cc2)C1=O)C(=O)N[C@@H](CC(=O)O)C(=O)N[C@@H](Cc1ccccc1)C(N)=O,15,,
CCCC[C@H](NC(=O)[C@H](Cc1c[nH]c2ccccc12)NC(=O)CNC(=O)[C@@H](CCCC)NC(=O)CCc1ccc(OS(=O)(=O)O)cc1)C(=O)N[C@@H](CC(=O)O)C(=O)N[C@@H](Cc1ccccc1)C(N)=O,,,IC50 [4]: 7.9 nM
CCCC[C@H](NC(=O)CCc1ccc(OS(=O)(=O)O)cc1)C(=O)NCC(=O)N[C@@H](Cc1c[nH]c2ccccc12)C(=O)N[C@@H](CCCC)C(=O)N1CC(OS(=O)(=O)O)C[C@H]1C(=O)N[C@@H](Cc1ccccc1)C(N)=O (some centres undefined) ({Hydrocinnamoyl(4-OSO3H)}-[Nle]GW[Nle][X2]F-NH2),,16,IC50 [2]: 140 nM

# Second part, led by results:
IC50 [1] [nM],IC50 [3] [nM],Compound,further results
,0.99,CCCC[C@H](NC(=O)CCc1ccc(OS(=O)(=O)O)cc1)C(=O)NCC(=O)N[C@@H](Cc1c[nH]c2ccccc12)C(=O)N[C@@H](CCCC)C(=O)N[C@@H](CC(=O)O)C(=O)N(C)[C@@H](Cc1ccccc1)C(N)=O [CCK7 analogue] ({Hydrocinnamoyl(4-OSO3H)}-[Nle]GW[Nle]D[NMeF]-NH2),IC50 [2]: 10 nM
,5.3,CCCC[C@H](NC(=O)CCc1ccc(OS(=O)(=O)O)cc1)C(=O)NCC(=O)N[C@@H](Cc1c[nH]c2ccccc12)C(=O)N[C@@H](CCCC)C(=O)N[C@@H](CC(=O)O)C(=O)N/C(=C\c1ccccc1)C(N)=O ({Hydrocinnamoyl(4-OSO3H)}-[Nle]GW[Nle]D[X3]-NH2),
0.5,,CCCC[C@H](NC(=O)CCc1ccc(OS(=O)(=O)O)cc1)C(=O)NCC(=O)N[C@@H](Cc1c[nH]c2ccccc12)C(=O)N[C@@H](CCCC)C(=O)N[C@@H](CC(=O)O)C(=O)N[C@@H](Cc1ccccc1)C(N)=O,
32,,CCCC[C@H](NC(=O)c1ccc2cc(OS(=O)(=O)O)ccc2c1)C(=O)NCC(=O)N[C@@H](Cc1c[nH]c2ccccc12)C(=O)N[C@@H](CCCC)C(=O)N[C@@H](CC(=O)O)C(=O)N[C@@H](Cc1ccccc1)C(N)=O (X4-[Nle]GW[Nle]DF-NH2),
0.59,,CCCC[C@H](NC(=O)[C@H](Cc1c[nH]c2ccccc12)NC(=O)CNC(=O)[C@H](CC(C)C)NC(=O)CCc1ccc(OS(=O)(=O)O)cc1)C(=O)N[C@@H](CC(=O)O)C(=O)N[C@@H](Cc1ccccc1)C(N)=O ({Hydrocinnamoyl(4-OSO3H)}-LGW[Nle]DF-NH2),

# From BindingDB's records for doi:10.1021/jm00094a001 (Abbott Laboratories, 1992)
